Laboratory results taken from PMC9067983, “Identification of highly selective type II kinase inhibitors with chiral peptidomimetic tails” (Journal of Enzyme Inhibition and Medicinal Chemistry, 2022).
Where a SMILES comes first, the peptide text is derived from it. [ ]: non-standard residue; d: D form. The star is where a group is joined. X1 = Cc1ccc(Nc2ncc3c(n2)N(C)C(=O)N(c2cc(C(=O)*)ccc2C)C3)cn1; Aib = CC(C)(N)C(=O)O

Key:
Abl1 = target: T1, Abl1 (Homo sapiens, UniProt P00519); experiment: In vitro kinase assay (IC50); format: biochemical
T1 construct: purchased Reaction Biology Corp
Experimental: (§1) Full panel kinase profiling and kinase IC50 measurement were performed by using Reaction Biology Corp. (San Diego, USA).

BMX/ETK = target: T2, BMX/ETK (Homo sapiens, UniProt P51813); experiment: In vitro kinase assay (IC50); format: biochemical
T2 construct: purchased Reaction Biology Corp
Experimental: as §1

Blk = target: T3, Blk (Homo sapiens, UniProt P51451); experiment: In vitro kinase assay (IC50); format: biochemical
T3 construct: purchased Reaction Biology Corp
Experimental: as §1

DDR1 = target: T4, DDR1 (Homo sapiens, UniProt Q08345); experiment: In vitro kinase assay (IC50); format: biochemical
T4 construct: purchased Reaction Biology Corp
Experimental: as §1

Fgr = target: T5, Fgr (Homo sapiens, UniProt P09769); experiment: In vitro kinase assay (IC50); format: biochemical
T5 construct: purchased Reaction Biology Corp
Experimental: as §1

Lck [1] = target: T6, Lck (Homo sapiens, UniProt P06239); experiment: In vitro kinase assay (IC50); format: biochemical
T6 construct: purchased Reaction Biology Corp
Experimental: as §1

Lyn = target: T7, Lyn (Homo sapiens, UniProt P07948); experiment: In vitro kinase assay (IC50); format: biochemical
T7 construct: purchased Reaction Biology Corp
Experimental: as §1

Yes = target: T8, Yes (Homo sapiens, UniProt P07947); experiment: In vitro kinase assay (IC50); format: biochemical
T8 construct: purchased Reaction Biology Corp
Experimental: as §1

c-Src = target: T9, c-Src (Homo sapiens, UniProt P12931); experiment: In vitro kinase assay (IC50); format: biochemical
T9 construct: purchased Reaction Biology Corp
Experimental: as §1

p38a = target: T10, p38a (Homo sapiens, UniProt Q16539); experiment: In vitro kinase assay (IC50); format: biochemical
T10 construct: purchased Reaction Biology Corp
Experimental: as §1

Lck [2] = target: T6, Lck; experiment: Biochemical IC50 on Lck at Km and 1 mM ATP
Experimental: as §1

Lck (Y394) = experiment: Western blot of p-Lck (Y394) in anti-CD3-treated Jurkat cells; format: cell-based; settings: anti-CD3-treated Jurkat T cells, 10, 50, or 100 μM, 30 min
Experimental: Figure 6. Effect of 7a on the Lck (Y394) activation in anti-CD3-treated Jurkat cells. After treatment with CD3 antibody for coating in plates, cells were seeded and then treated with various concentrations of 7a (10, 50, or 100 μM) or A770041 (1 μM) used as a positive control. The phosphorylation of Lck tyrosine in Jurkat cells was activated by anti-CD3 mAb. Total cellular protein was resolved by SDS-PAGE, transferred to PVDF membranes, and detected with specific p-Lck (Y394) antibody. β-Actin was used as an internal control.
Jurkat cells were purchased from the Korea Cell Line Bank (Seoul, Republic of Korea) and maintained in RPMI-1640 medium containing 10% FBS, streptomycin sulphate, penicillin, HEPES, and sodium bicarbonate in a 5% CO2 atmosphere at 37 °C. Jurkat cells were stimulated with 1 μg/ml of plate-bound anti-CD3 mAb (clone HIT3a, BD Bioscience) and then incubated with KITS 1–001 (10, 50, or 100 μM) for 30 min.
The protein of Jurkat cells was extracted using a PRO-PREP (Intron Biotechnology, Seoul, Republic of Korea). The protein concentration was determined using Bio-Rad protein assay reagent according to the manufacturer’s instruction and BSA (Bio-Rad, Hercules, CA, USA) was used as a standard for quantification. […] The membranes were analysed using an enhanced chemiluminescence (ECL) substrate and imaged by LAS-4000 luminescent image analyser (FUJIFILM, Tokyo, Japan).

DSS-induced colitis mice = experiment: DSS-induced colitis model; format: in vivo; settings: 5 mg/kg, i.p., daily for 7 days, 4% DSS, day 7
Experimental: Male C57BL/6 mice (21 ± 2 g; 6 weeks) were obtained from Oriental Bio Inc. (Seongnam-si, Korea). All mice were bred under constant conditions (temperature: 22 ± 2 °C, humidity: 40–60%, light/dark cycle: 12 h). All animal experiments were conducted under the university guidelines of the ethical committee for Animal Care and Use of the Kyung Hee University (KHSASP-22–002).
Colitis in mice was induced by providing water containing 4% (w/v) DSS for 7 days. Mice were randomly divided into 5 groups (n = 6/group, Figure 8) as follows: control group treated with vehicle; DSS plus vehicle group exposed to 4% DSS and treated with vehicle; the other 3 groups consist of mice receiving 4% DSS was treated with 5-ASA (75 mg/kg/day, p.o.) as a positive control or 7a (1, 5 mg/kg/day, i.p.) daily for 7 days.
To calculate the severity of colitis, body weight, stool consistency, and occult/gross bleeding of all mice were assessed. DAI score was measured every day according to the following table (Table 5). The colon length was measured at end of the experiment.

BMPR2 = target: T11, BMPR2 (Homo sapiens, UniProt Q13873); experiment: kinase selectivity profiling; format: biochemical; settings: 10µM ATP, read-out: % inhibition (relative to DMSO)
T11 construct: purchased Reaction Biology Corp
Experimental: as §1

BRSK2 = target: T12, BRSK2 (Homo sapiens, UniProt Q8IWQ3); experiment: kinase selectivity profiling; format: biochemical; settings: 10µM ATP, read-out: % inhibition (relative to DMSO)
T12 construct: purchased Reaction Biology Corp
Experimental: as §1

CDK2/cyclin O = target: T13, CDK2/cyclin O (Homo sapiens, UniProt P24941); experiment: kinase selectivity profiling; format: biochemical; settings: 10µM ATP, read-out: % inhibition (relative to DMSO)
T13 construct: purchased Reaction Biology Corp
Experimental: as §1

EPHA7 = target: T14, EPHA7 (Homo sapiens, UniProt Q15375); experiment: kinase selectivity profiling; format: biochemical; settings: 10µM ATP, read-out: % inhibition (relative to DMSO)
T14 construct: purchased Reaction Biology Corp
Experimental: as §1

FGFR4 = target: T15, FGFR4 (Homo sapiens, UniProt P22455); experiment: kinase selectivity profiling; format: biochemical; settings: 10µM ATP, read-out: % inhibition (relative to DMSO)
T15 construct: purchased Reaction Biology Corp
Experimental: as §1

MAPKAPK3 = target: T16, MAPKAPK3 (Homo sapiens, UniProt Q16644); experiment: kinase selectivity profiling; format: biochemical; settings: 10µM ATP, read-out: % inhibition (relative to DMSO)
T16 construct: purchased Reaction Biology Corp
Experimental: as §1

MST2/STK3 = target: T17, MST2/STK3 (Homo sapiens, UniProt Q13188); experiment: kinase selectivity profiling; format: biochemical; settings: 10µM ATP, read-out: % inhibition (relative to DMSO)
T17 construct: purchased Reaction Biology Corp
Experimental: as §1

PKCmu/PRKD1 = target: T18, PKCmu/PRKD1 (Homo sapiens, UniProt Q15139); experiment: kinase selectivity profiling; format: biochemical; settings: 10µM ATP, read-out: % inhibition (relative to DMSO)
T18 construct: purchased Reaction Biology Corp
Experimental: as §1

SGK3/SGKL = target: T19, SGK3/SGKL (Homo sapiens, UniProt Q96BR1); experiment: kinase selectivity profiling; format: biochemical; settings: 10µM ATP, read-out: % inhibition (relative to DMSO)
T19 construct: purchased Reaction Biology Corp
Experimental: as §1

SIK2 = target: T20, SIK2 (Homo sapiens, UniProt Q9H0K1); experiment: kinase selectivity profiling; format: biochemical; settings: 10µM ATP, read-out: % inhibition (relative to DMSO)
T20 construct: purchased Reaction Biology Corp
Experimental: as §1

T6 sequence (P06239 whole entry): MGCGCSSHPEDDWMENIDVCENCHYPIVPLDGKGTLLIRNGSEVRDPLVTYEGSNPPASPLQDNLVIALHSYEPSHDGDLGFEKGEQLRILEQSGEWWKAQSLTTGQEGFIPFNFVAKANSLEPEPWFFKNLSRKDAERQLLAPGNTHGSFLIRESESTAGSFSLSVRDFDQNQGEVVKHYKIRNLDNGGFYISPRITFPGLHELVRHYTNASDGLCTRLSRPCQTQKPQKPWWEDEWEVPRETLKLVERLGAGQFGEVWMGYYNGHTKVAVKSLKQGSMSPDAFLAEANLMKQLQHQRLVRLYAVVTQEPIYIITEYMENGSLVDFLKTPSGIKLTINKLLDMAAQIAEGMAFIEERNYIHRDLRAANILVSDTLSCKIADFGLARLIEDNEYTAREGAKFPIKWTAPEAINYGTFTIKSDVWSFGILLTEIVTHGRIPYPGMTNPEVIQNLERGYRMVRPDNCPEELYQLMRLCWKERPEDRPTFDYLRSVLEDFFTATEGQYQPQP
T3 sequence (P51451 whole entry): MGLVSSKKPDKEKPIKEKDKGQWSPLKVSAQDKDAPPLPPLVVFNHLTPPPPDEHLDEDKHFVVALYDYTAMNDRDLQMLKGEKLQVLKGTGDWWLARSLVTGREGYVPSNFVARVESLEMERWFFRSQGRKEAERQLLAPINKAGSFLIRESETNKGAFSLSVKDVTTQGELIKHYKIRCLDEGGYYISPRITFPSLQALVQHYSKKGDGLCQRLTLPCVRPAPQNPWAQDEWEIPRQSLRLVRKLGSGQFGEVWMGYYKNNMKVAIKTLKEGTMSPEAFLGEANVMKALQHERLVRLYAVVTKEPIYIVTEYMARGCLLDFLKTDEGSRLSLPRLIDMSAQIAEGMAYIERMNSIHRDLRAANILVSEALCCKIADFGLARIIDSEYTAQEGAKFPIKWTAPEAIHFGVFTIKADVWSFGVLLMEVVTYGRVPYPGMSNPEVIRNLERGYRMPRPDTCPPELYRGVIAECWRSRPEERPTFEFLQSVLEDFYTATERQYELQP
T11 sequence (Q13873 27-1038): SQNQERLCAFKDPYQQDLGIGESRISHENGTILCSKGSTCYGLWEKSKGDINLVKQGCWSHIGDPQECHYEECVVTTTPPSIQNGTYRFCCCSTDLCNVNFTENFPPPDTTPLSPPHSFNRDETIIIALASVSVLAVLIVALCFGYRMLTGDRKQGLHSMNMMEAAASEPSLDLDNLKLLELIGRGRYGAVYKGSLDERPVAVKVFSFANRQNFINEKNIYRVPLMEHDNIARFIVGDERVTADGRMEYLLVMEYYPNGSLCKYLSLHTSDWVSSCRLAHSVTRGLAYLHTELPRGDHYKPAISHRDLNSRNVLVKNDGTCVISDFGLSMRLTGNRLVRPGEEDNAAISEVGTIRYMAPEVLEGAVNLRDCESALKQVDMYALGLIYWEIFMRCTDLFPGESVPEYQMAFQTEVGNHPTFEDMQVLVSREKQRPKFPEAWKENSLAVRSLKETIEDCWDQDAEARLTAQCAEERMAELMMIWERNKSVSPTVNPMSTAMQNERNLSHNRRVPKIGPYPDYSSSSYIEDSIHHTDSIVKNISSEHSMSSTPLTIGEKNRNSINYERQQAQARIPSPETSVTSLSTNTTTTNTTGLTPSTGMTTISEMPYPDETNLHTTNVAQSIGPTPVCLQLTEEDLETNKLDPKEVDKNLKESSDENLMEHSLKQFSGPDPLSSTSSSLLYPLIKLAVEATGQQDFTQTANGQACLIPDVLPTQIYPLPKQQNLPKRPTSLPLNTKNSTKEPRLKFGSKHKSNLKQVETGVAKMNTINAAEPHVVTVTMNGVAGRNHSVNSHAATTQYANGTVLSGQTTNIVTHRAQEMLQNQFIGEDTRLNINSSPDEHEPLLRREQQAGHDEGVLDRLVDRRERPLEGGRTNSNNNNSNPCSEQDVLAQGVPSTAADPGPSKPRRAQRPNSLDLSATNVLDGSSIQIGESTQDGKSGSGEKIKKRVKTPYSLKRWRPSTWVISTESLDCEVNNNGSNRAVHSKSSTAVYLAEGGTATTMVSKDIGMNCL
T8 sequence (P07947 whole entry): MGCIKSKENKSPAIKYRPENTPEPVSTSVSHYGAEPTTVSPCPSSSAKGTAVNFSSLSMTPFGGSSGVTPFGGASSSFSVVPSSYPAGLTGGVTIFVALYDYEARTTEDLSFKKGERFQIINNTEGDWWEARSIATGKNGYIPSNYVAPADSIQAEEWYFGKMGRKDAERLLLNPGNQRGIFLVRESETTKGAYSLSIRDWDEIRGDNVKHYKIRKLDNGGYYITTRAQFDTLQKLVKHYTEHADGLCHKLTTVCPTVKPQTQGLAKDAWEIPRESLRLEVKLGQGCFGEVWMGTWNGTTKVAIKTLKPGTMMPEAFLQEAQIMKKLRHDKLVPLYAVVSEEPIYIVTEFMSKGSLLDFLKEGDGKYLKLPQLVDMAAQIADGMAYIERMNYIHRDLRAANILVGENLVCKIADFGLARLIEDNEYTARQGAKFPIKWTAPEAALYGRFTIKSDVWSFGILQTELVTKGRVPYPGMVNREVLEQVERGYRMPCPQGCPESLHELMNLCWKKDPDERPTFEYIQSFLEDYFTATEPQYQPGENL
T15 sequence (P22455 22-802): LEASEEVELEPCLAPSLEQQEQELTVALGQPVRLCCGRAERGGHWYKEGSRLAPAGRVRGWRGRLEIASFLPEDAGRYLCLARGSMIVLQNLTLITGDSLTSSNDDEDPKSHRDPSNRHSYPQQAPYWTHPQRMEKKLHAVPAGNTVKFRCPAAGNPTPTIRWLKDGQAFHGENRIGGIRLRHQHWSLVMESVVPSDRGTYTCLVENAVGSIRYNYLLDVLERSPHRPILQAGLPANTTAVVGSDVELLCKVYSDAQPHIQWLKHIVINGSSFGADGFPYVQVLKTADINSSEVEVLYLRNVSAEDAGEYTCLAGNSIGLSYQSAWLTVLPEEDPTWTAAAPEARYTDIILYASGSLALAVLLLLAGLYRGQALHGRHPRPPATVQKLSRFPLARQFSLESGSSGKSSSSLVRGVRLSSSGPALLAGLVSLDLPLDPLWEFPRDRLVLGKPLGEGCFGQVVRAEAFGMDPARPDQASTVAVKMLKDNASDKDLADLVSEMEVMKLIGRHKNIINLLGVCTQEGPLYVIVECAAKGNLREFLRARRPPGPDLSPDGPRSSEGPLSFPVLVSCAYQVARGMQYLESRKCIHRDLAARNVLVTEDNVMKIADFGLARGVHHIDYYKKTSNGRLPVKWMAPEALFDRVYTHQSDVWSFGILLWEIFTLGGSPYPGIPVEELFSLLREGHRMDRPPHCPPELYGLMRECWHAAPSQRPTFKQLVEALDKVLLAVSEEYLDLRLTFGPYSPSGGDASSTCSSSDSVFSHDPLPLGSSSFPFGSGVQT
T7 sequence (P07948 whole entry): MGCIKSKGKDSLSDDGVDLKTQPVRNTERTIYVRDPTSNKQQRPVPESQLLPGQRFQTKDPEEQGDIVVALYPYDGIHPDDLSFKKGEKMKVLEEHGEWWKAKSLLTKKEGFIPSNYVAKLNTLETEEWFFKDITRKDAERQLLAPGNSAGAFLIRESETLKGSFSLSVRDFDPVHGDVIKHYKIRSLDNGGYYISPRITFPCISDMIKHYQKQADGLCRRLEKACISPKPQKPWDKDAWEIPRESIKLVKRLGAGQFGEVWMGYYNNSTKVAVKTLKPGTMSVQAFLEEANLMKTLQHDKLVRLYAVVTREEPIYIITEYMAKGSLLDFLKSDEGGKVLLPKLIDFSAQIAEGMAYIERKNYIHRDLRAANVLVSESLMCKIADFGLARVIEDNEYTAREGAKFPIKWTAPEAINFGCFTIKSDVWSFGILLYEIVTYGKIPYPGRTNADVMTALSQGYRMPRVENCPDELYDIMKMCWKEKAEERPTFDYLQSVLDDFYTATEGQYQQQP
T9 sequence (P12931 whole entry): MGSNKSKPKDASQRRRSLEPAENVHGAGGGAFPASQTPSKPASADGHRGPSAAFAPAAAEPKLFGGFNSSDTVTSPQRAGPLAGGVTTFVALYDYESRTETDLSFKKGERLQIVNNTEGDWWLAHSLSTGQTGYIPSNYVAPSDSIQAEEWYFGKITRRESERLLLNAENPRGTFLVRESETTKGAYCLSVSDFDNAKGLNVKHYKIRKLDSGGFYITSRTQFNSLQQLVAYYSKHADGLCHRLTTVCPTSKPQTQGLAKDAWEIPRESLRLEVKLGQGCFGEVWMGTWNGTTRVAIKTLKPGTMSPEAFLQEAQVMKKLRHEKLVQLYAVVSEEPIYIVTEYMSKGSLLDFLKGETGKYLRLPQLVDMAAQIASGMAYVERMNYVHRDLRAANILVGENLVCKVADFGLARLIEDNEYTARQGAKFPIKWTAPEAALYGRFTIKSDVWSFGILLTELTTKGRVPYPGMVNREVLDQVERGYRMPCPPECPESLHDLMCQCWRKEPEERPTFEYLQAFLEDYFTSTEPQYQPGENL
T5 sequence (P09769 whole entry): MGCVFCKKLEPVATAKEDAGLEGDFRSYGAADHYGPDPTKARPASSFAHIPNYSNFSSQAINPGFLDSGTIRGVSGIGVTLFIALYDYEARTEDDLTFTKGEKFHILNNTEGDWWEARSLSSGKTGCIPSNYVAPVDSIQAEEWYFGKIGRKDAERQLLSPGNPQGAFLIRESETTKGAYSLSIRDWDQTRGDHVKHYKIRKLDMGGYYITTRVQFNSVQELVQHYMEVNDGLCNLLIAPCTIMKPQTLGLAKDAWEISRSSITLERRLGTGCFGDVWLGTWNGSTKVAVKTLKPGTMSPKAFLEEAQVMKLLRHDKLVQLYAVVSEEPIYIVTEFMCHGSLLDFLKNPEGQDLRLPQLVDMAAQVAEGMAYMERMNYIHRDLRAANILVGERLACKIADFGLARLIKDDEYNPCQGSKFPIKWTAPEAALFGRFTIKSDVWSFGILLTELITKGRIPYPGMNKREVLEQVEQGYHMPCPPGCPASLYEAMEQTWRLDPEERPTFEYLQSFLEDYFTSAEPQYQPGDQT

Work on Cc1ccc(Nc2ncc3c(n2)N(C)C(=O)N(c2cc(C(=O)N[C@H](C(=O)N4CCC[C@H]4C(=O)NC(C)(C)C(=O)N[C@@H](CC(C)C)C(=O)N(C)C)C(C)C)ccc2C)C3)cn1 [7a, (S)-N-(1-(((S)-1-(dimethylamino)-4-methyl-1-oxopentan-2-yl)amino)-2-methyl-1-oxopropan-2-yl)-1-((4-methyl-3-(1-methyl-7-((6-methylpyridin-3-yl)amino)-2-oxo-1,4-dihydropyrimido[4,5-d]pyrimidin-3(2H)-yl)benzoyl)-L-valyl)pyrrolidine-2-carboxamide] (X1-VP[Aib]L-NMe2) yielded an IC50 (Abl1) of 378 nM, an IC50 (BMX/ETK) of 293 nM and an IC50 (Blk) of 253 nM. It also gave an IC50 (DDR1) of 110 nM, an IC50 (Fgr) of 201 nM and an IC50 (Lck [1]) of 23 nM. The “selectivity for Lck over c-Src” value (Lck [1]) was “over 10 fold”, the “Lck selectivity over c-Src (c-Src IC50 / Lck IC50)” value (Lck [1]; Table 2) was 37 and the IC50 (Lyn) was 671 nM. For the same compound, the IC50 (Yes) was 495 nM, the IC50 (c-Src) was 861 nM and the IC50 (p38a) was > 10000 nM. The IC50 (Lck [2]; ATP conc. 14 µM (Km)) was 190 nM, the IC50 (Lck [2]; ATP conc. 1 mM) was 21000 nM and the mode of inhibition (Lck [2]; IC50 at Km vs 1 mM ATP) was “ATP competitive kinase inhibitors”. For the same compound, the “phosphorylated Lck levels at tyrosine 394” value (Lck (Y394)) was “markedly reduced the phosphorylated Lck levels at tyrosine 394 residue in a concentration-dependent manner”, the “disease activity index (DAI) symptom changes” value (DSS-induced colitis mice) was “improved the symptom changes at the end of experiments” and the colon length (DSS-induced colitis mice; mean ± SE, n = 6) was 5.47 ± 0.60 cm. It also gave an inhibition at 1 µM (BMPR2) of 10%, an inhibition at 1 µM (BRSK2) of 8% and an inhibition at 1 µM (CDK2/cyclin O) of 0%. It also gave an inhibition at 1 µM (EPHA7) of 2%, an inhibition at 1 µM (FGFR4) of 5% and an inhibition at 1 µM (MAPKAPK3) of 2%. The inhibition at 1 µM (MST2/STK3) was 7%, the inhibition at 1 µM (PKCmu/PRKD1) was 0% and the inhibition at 1 µM (SGK3/SGKL) was 6%. For the same compound, the inhibition at 1 µM (SIK2) was 2%.
